Measured values as given in patent publication US20240208992A1, “MACROCYCLES AS CFTR MODULATORS” (Idorsia Pharmaceuticals Ltd, priority 2021, published 2024).

Biological target: human F508del-CFTR (Homo sapiens, UniProt P13569, DEL508-508)
Test: F508del-CFTR cell surface expression (corrector activity), DiscoveRx ß-galactosidase complementation chemiluminescence assay in recombinant U2OS cell line;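 note: U2OS cells co-expressing ProLink-tagged F508del-CFTR and a membrane-anchored enzyme acceptor, where more surface CFTR restores β-galactosidase activity measured by chemiluminescence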
Conditions: for EC50: EC50, F508del-CFTR cell surface expression, U2OS cells, 16h compound incubation, geomean values; for Emax: U2OS, in relation to Emax of corrector lumacaftor (=100%), arithmetic mean values

human F508del-CFTR, sequence (P13569 with tags, fused parts or gaps DEL508-508): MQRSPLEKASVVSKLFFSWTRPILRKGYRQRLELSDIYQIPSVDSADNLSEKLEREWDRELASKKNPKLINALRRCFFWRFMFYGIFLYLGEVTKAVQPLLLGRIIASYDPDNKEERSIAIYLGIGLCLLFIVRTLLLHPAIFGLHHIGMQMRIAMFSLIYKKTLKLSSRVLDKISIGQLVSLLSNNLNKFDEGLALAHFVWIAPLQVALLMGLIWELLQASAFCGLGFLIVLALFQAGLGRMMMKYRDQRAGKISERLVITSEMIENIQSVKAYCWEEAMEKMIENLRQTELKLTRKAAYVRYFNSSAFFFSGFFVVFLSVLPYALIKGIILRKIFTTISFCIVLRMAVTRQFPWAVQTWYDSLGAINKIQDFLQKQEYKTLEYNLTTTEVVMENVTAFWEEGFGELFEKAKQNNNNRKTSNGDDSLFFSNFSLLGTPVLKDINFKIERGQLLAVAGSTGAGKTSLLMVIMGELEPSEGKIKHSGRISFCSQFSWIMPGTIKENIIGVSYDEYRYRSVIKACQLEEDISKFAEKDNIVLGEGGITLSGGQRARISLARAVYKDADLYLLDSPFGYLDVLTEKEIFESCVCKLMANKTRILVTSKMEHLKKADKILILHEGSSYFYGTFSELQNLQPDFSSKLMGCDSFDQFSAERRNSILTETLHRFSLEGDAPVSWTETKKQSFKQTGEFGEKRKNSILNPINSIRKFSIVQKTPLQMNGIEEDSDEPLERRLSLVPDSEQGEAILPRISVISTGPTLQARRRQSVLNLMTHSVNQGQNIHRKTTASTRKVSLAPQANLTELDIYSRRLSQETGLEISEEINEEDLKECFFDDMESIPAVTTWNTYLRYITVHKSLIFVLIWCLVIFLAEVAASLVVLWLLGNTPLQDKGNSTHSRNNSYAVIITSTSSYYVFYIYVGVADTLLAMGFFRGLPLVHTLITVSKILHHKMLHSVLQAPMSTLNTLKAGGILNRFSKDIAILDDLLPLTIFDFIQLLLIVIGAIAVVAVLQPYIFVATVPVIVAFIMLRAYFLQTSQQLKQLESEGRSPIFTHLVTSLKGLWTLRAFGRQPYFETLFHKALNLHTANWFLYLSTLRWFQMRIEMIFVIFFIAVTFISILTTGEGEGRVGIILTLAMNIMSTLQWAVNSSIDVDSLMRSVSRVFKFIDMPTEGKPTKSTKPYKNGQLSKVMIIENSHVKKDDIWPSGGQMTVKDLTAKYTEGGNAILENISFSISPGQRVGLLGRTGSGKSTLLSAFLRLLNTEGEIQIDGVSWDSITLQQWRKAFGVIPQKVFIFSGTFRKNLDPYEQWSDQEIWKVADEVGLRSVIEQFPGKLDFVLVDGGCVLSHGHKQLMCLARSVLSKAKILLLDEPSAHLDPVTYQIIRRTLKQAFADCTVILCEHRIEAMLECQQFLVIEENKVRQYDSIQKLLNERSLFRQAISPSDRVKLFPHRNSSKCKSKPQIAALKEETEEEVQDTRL

EC50 [nM]	Emax [%]	SMILES
140	346	COc1cc(CCNC(=O)[C@@H]2CC(=O)N(C)[C@@H](CC(C)C)C(=O)N3CCCC[C@@H]3C(=O)N[C@H](Cc3ccccc3)COc3ccc4ncc(F)cc4c3C(=O)N2)on1 [Example 769, (9S,13S,19aR,22R)-22-benzyl-5-fluoro-13-isobutyl-N-(2-(3-methoxyisoxazol-5-yl)ethyl)-12-methyl-7,11,14,20-tetraoxo-7,8,9,10,11,12,13,14,17,18,19,19a,20,21,22,23-hexadecahydro-16H-pyrido[2′,1′:6,7][1]oxa[4,7,10,14]tetraazacycloheptadecino[16,17-f]quinoline-9-carboxamide]
1000	228	COc1cc(CCNC(=O)[C@@H]2CC(=O)N(C)[C@@H](CC(C)C)C(=O)N3CCCC[C@H]3C(=O)N[C@H](Cc3ccccc3)COc3ccc4ncc(F)cc4c3C(=O)N2)on1 [Example 770, (9S,13S,19aS,22R)-22-benzyl-5-fluoro-13-isobutyl-N-(2-(3-methoxyisoxazol-5-yl)ethyl)-12-methyl-7,11,14,20-tetraoxo-7,8,9,10,11,12,13,14,17,18,19,19a,20,21,22,23-hexadecahydro-16H-pyrido[2′,1′:6,7][1]oxa[4,7,10,14]tetraazacycloheptadecino[16,17-f]quinoline-9-carboxamide]
597	299	COc1cc(CCNC(=O)[C@@H]2CC(=O)N(C)[C@@H](CC(C)C)C(=O)N(C)[C@H](C)C(=O)N[C@H](Cc3ccccc3)COc3ccnc(OC)c3C(=O)N2)on1 [Example 771, (3R,6R,9S,13S)-3-benzyl-9-isobutyl-16-methoxy-N-(2-(3-methoxyisoxazol-5-yl)ethyl)-6,7,10-trimethyl-5,8,11,15-tetraoxo-2,3,4,5,6,7,8,9,10,11,12,13,14,15-tetradecahydropyrido[3,4-p][1]oxa[4,7,10,14]tetraazacycloheptadecine-13-carboxamide]
514	343	COc1cc(CCNC(=O)[C@@H]2CC(=O)N(C)[C@@H](CC(C)C)C(=O)N(C)[C@H](C)C(=O)N[C@H](Cc3ccccc3)COc3cc(C)nc(OC)c3C(=O)N2)on1 [Example 772, (3R,6R,9S,13S)-3-benzyl-9-isobutyl-16-methoxy-N-(2-(3-methoxyisoxazol-5-yl)ethyl)-6,7,10,18-tetramethyl-5,8,11,15-tetraoxo-2,3,4,5,6,7,8,9,10,11,12,13,14,15-tetradecahydropyrido[3,4-p][1]oxa[4,7,10,14]tetraazacycloheptadecine-13-carboxamide]
841	339	CC[C@@H]1C(=O)N[C@H](Cc2ccccc2)COc2cc(C)nc(OC)c2C(=O)N[C@H](C(=O)NCCc2cc(C)no2)CC(=O)N(C)[C@@H](CC(C)C)C(=O)N1C [Example 773, (3R,6R,9S,13S)-3-benzyl-6-ethyl-9-isobutyl-16-methoxy-7,10,18-trimethyl-N-(2-(3-methylisoxazol-5-yl)ethyl)-5,8,11,15-tetraoxo-2,3,4,5,6,7,8,9,10,11,12,13,14,15-tetradecahydropyrido[3,4-p][1]oxa[4,7,10,14]tetraazacycloheptadecine-13-carboxamide]

SMILES	EC50 [nM]	Emax [%]
CC[C@@H]1C(=O)N[C@H](Cc2ccccc2)COc2cc(C)nc(OC)c2C(=O)N[C@H](C(=O)NCCc2cccc(OC)c2)CC(=O)N(C)[C@@H](CC(C)C)C(=O)N1C [Example 774, (3R,6R,9S,13S)-3-benzyl-6-ethyl-9-isobutyl-16-methoxy-N-(3-methoxyphenethyl)-7,10,18-trimethyl-5,8,11,15-tetraoxo-2,3,4,5,6,7,8,9,10,11,12,13,14,15-tetradecahydropyrido[3,4-p][1]oxa[4,7,10,14]tetraazacycloheptadecine-13-carboxamide]	751	345
